Data published in patent EP0205308B1, “Scytophycins” (Moore, Richard Elliott, priority 1985, dated 1986).
Marks after values point to notes of the source that are not given here. Starred links: 1 amine or outer side, 2 acyl side, 3 side chain; linkers in the order of their positions; H or OH if unused. Non-standard residues stand in square brackets, D forms with d. Residues, ends and D or L forms follow the SMILES beside them. X1 = CCC(N[*:1])C(C)C(=O)O[C@H](C(=O)[*:2])[C@@H](C)CC; X2 = C[C@H](N[*:1])C(=O)C(C)(C)C(=O)[*:2]; NMeY = CN[C@@H](Cc1ccc(O)cc1)C(=O)O; NMeI = CC[C@H](C)[C@H](NC)C(=O)O; NMeV = CN[C@H](C(=O)O)C(C)C

Legend:
[1] = tested on: Sclerotina homoeocarpa X768; assay: In vitro agar-diffusion test; type: cell-based; design: key: - = not active
Protocol: (§1) The activity of scytophycin compounds against pathogenic fungi in standard in vitro agar-diffusion tests, using ¼"(6mm) discs holding ~30 µL of test solution, is illustrated in Tables 6-12.

Rhizoctonia solani X767 = assay: In vitro agar-diffusion test; type: cell-based; design: key: - = not active
Protocol: as §1

Pythium ultimum X751 = assay: In vitro agar-diffusion test; type: cell-based; conditions: for Zone of Inhibition Size: Table 6, level 1 mg/mL
Protocol: as §1

B16 Melanoma = assay: Survival of mice with intraperitoneally implanted tumor; type: in vivo, BDF1 Mice; conditions: for activity against intraperitoneally implanted tumor: B16 melanoma, result in words
Protocol: (§2) Female hybrid BDF1 (DBA/2 x C57BL/6) mice were used for the evaluation of the scytophycins against the three tumors. The mice were first inoculated intraperitoneally with 10⁶ cells of P388 ascites leukemia (P388), 2 to 6 x 10⁵ cells of Lewis lung carcinoma (LLC) homogenate, or 0.3 mL of 20% homogenate of B16 tumor (B16) masses. Drug treatment was started the next day (day 1) and continued daily for 6-9 days.

[2] = tested on: P388 Lymphocytic Leukemia; assay: as above; type: in vivo, BDF1 Mice; conditions: for activity against intraperitoneally implanted tumor: P388 lymphocytic leukemia, result in words
Protocol: as §2

Lewis Lung Carcinoma = assay: as above; type: in vivo, BDF1 Mice; conditions: for activity against intraperitoneally implanted tumor: Lewis lung carcinoma, result in words; for % T/C / Mean Survival Time, Days Treated: LLC, 9 days of treatment
Protocol: as §2

NIH/3T3 mouse fibroblast = assay: Cytotoxicity, minimum toxic dose (method of Furusawa and Cutting); type: cell-based; conditions: NIH/3T3 mouse fibroblast cell line
Protocol: (§3) The scytophycin compounds are potent cytotoxins. For example, the minimum toxic doses of scytophycins A and B against KB human epidermoid carcinoma and NIH/3T3 mouse fibroblast cell lines were determined to be 1 ng/mL and 0.65 ng/mL, respectively, using methods described by E. Furusawa and W. Cutting in Ann. New York Acad. Sci. 173, 669-679 (1970).

[3] = tested on: KB human epidermoid carcinoma; assay: as above; type: cell-based; conditions: KB human epidermoid carcinoma cell line
Protocol: as §3

Neurospora crassa X846 = assay: In vitro agar-diffusion test; type: cell-based
Protocol: as §1

Candida albicans X657 = assay: In vitro agar-diffusion test; type: cell-based; conditions: for inhibition of fungal pathogen: Candida albicans, general statement in words
Protocol: as §1

[4] = tested on: Saccharomyces pastorianus X52; assay: In vitro agar-diffusion test; type: cell-based; design: key: T = trace
Protocol: as §1

[5] = type: in vivo; conditions: mice, administered IP
Protocol: At sublethal doses, the scytophycin compounds are antineoplastic agents. The minimum lethal dose of scytophycin B in mice, when administered IP, is about 650 µg/kg.

[6] = P388, 1 µg/Mouse, 8 days of treatment
[7] = B16, 2 µg/Mouse, 8 days of treatment
[8] = B16, 4 µg/Mouse, 8 days of treatment
[9] = B16, 8 µg/Mouse, 8 days of treatment
[10] = P388, 0.5 µg/Mouse, 8 days of treatment
[11] = P388, 0.65 µg/Mouse, 8 days of treatment
[12] = P388, 2 µg/Mouse, 8 days of treatment
[13] = P388, 3.25 µg/Mouse, 6 days of treatment
[14] = P388, 4 µg/Mouse, 8 days of treatment

CCC1NC(=O)[C@H](C)NC(=O)C(C)(C)C(=O)[C@H](C)NC(=O)[C@H](Cc2ccc(OC)cc2)N(C)C(=O)[C@H](C(C)C)N(C)C(=O)CNC(=O)[C@H]([C@@H](C)CC)N(C)C(=O)CNC(=O)[C@H]([C@@H](C)CC)OC(=O)C1C (some centres unmarked) [Majusculamide C, reference compound] (cyclo(A[X1]G[NMeI]G[NMeV][NMeY](Me)[X2]))
Size of Zone of Inhibition (mm) ([1]; Table 10, 0.01 mg/mL): - | Size of Zone of Inhibition (mm) ([1]; Table 10, 0.1 mg/mL): - | Size of Zone of Inhibition (mm) ([1]; Table 10, 1.0 mg/mL): 17 mm | Size of Zone of Inhibition (mm) (Rhizoctonia solani X767; Table 10, 0.01 mg/mL): - | Size of Zone of Inhibition (mm) (Rhizoctonia solani X767; Table 10, 0.1 mg/mL): - | Size of Zone of Inhibition (mm) (Rhizoctonia solani X767; Table 10, 1.0 mg/mL): 20^a mm | Size of Zone of Inhibition (mm) (Pythium ultimum X751; Table 10, 0.01 mg/mL): 10^a mm | Size of Zone of Inhibition (mm) (Pythium ultimum X751; Table 10, 0.1 mg/mL): 18 mm | Size of Zone of Inhibition (mm) (Pythium ultimum X751; Table 10, 1.0 mg/mL): >30 mm

Scytophycin A
activity against intraperitoneally implanted tumor (B16 Melanoma): did not exhibit activity | % T/C [2, 6]: 125% | Mean Survival Time, Days Treated [2, 6]: 10.0 days | activity against intraperitoneally implanted tumor [2]: moderate activity | activity against intraperitoneally implanted tumor (Lewis Lung Carcinoma): moderate activity | minimum toxic dose (NIH/3T3 mouse fibroblast): 1 ng/mL | minimum toxic dose [3]: 1 ng/mL | Size of Zone of Inhibition (mm) ([1]; Table 10, 0.01 mg/mL): 20 mm | Size of Zone of Inhibition (mm) ([1]; Table 10, 0.1 mg/mL): 30 mm | Size of Zone of Inhibition (mm) ([1]; Table 10, 1.0 mg/mL): >30 mm | Size of Zone of Inhibition (mm) (Rhizoctonia solani X767; Table 10, 0.01 mg/mL): 13 mm | Size of Zone of Inhibition (mm) (Rhizoctonia solani X767; Table 10, 0.1 mg/mL): 23 mm | Size of Zone of Inhibition (mm) (Rhizoctonia solani X767; Table 10, 1.0 mg/mL): 30 mm | Zone of Inhibition Size (Pythium ultimum X751): 37 mm | Size of Zone of Inhibition (mm) (Pythium ultimum X751; Table 10, 0.01 mg/mL): 20 mm | Size of Zone of Inhibition (mm) (Pythium ultimum X751; Table 10, 0.1 mg/mL): >30 mm | Size of Zone of Inhibition (mm) (Pythium ultimum X751; Table 10, 1.0 mg/mL): >30 mm | Size of Zone of Inhibition (mm) (Neurospora crassa X846; Table 7, 0.01 mg/mL): 18 mm | Size of Zone of Inhibition (mm) (Neurospora crassa X846; Table 7, 0.1 mg/mL): 25 mm | Size of Zone of Inhibition (mm) (Neurospora crassa X846; Table 7, 1 mg/mL): 30 mm | inhibition of fungal pathogen (Candida albicans X657): inhibit | Size of Zone of Inhibition (mm) (Candida albicans X657; Table 7, 0.01 mg/mL): 12 mm | Size of Zone of Inhibition (mm) (Candida albicans X657; Table 7, 0.1 mg/mL): 19 mm | Size of Zone of Inhibition (mm) (Candida albicans X657; Table 7, 1 mg/mL): 23 mm | Size of Zone of Inhibition (mm) ([4]; Table 7, 0.01 mg/mL): T^a | Size of Zone of Inhibition (mm) ([4]; Table 7, 0.1 mg/mL): 17 mm | Size of Zone of Inhibition (mm) ([4]; Table 7, 1 mg/mL): 24 mm

Scytophycin B
% T/C (B16 Melanoma; [7]): 102% | Mean Survival Time, Days Treated (B16 Melanoma; [7]): 19.4 days | % T/C (B16 Melanoma; [8]): 104% | Mean Survival Time, Days Treated (B16 Melanoma; [8]): 19.8 days | % T/C (B16 Melanoma; [9]): 63% | Mean Survival Time, Days Treated (B16 Melanoma; [9]): 12.0 days | toxicity remark in % T/C column (B16 Melanoma; [9]): toxic | activity against intraperitoneally implanted tumor (B16 Melanoma): did not exhibit activity | % T/C [2, 10]: 100% | Mean Survival Time, Days Treated [2, 10]: 9.4 days | % T/C [2, 11]: 125% | Mean Survival Time, Days Treated [2, 11]: 10.0 days | % T/C [2, 6]: 113% | Mean Survival Time, Days Treated [2, 6]: 10.6 days | % T/C [2, 12]: 130% | Mean Survival Time, Days Treated [2, 12]: 12.2 days | % T/C [2, 13]: 136% | Mean Survival Time, Days Treated [2, 13]: 11.4 days | % T/C [2, 14]: 128% | Mean Survival Time, Days Treated [2, 14]: 12.0 days | activity against intraperitoneally implanted tumor [2]: moderate activity | % T/C (Lewis Lung Carcinoma; 0.5 µg/Mouse): 106% | Mean Survival Time, Days Treated (Lewis Lung Carcinoma; 0.5 µg/Mouse): 10.4 days | % T/C (Lewis Lung Carcinoma; 1 µg/Mouse): 114% | Mean Survival Time, Days Treated (Lewis Lung Carcinoma; 1 µg/Mouse): 11.2 days | % T/C (Lewis Lung Carcinoma; 2 µg/Mouse): 124% | Mean Survival Time, Days Treated (Lewis Lung Carcinoma; 2 µg/Mouse): 12.2 days | % T/C (Lewis Lung Carcinoma; 4 µg/Mouse): 129% | Mean Survival Time, Days Treated (Lewis Lung Carcinoma; 4 µg/Mouse): 12.6 days | activity against intraperitoneally implanted tumor (Lewis Lung Carcinoma): moderate activity | minimum toxic dose (NIH/3T3 mouse fibroblast): 0.65 ng/mL | minimum toxic dose [3]: 0.65 ng/mL | Size of Zone of Inhibition (mm) ([1]; Table 10, 0.01 mg/mL): >30 mm | Size of Zone of Inhibition (mm) ([1]; Table 10, 0.1 mg/mL): >30 mm | Size of Zone of Inhibition (mm) ([1]; Table 10, 1.0 mg/mL): >30 mm | Size of Zone of Inhibition (mm) ([1]; Table 11, 0.33 mg/mL): 40 mm | Size of Zone of Inhibition (mm) ([1]; Table 11, 1.0 mg/mL): 44 mm | Size of Zone of Inhibition (mm) (Rhizoctonia solani X767; Table 10, 0.01 mg/mL): 30 mm | Size of Zone of Inhibition (mm) (Rhizoctonia solani X767; Table 10, 0.1 mg/mL): >30 mm | Size of Zone of Inhibition (mm) (Rhizoctonia solani X767; Table 10, 1.0 mg/mL): >30 mm | Size of Zone of Inhibition (mm) (Rhizoctonia solani X767; Table 11, 0.33 mg/mL): 40 mm | Size of Zone of Inhibition (mm) (Rhizoctonia solani X767; Table 11, 1.0 mg/mL): 46^a mm | Zone of Inhibition Size (Pythium ultimum X751): 37 mm | Size of Zone of Inhibition (mm) (Pythium ultimum X751; Table 10, 0.01 mg/mL): 30 mm | Size of Zone of Inhibition (mm) (Pythium ultimum X751; Table 10, 0.1 mg/mL): 30^a mm | Size of Zone of Inhibition (mm) (Pythium ultimum X751; Table 10, 1.0 mg/mL): 30^a mm | Size of Zone of Inhibition (mm) (Pythium ultimum X751; Table 11, 0.33 mg/mL): 30 mm | Size of Zone of Inhibition (mm) (Pythium ultimum X751; Table 11, 1.0 mg/mL): 30 mm | Size of Zone of Inhibition (mm) (Neurospora crassa X846; Table 7, 0.01 mg/mL): 30 mm | Size of Zone of Inhibition (mm) (Neurospora crassa X846; Table 7, 0.1 mg/mL): 27 mm | Size of Zone of Inhibition (mm) (Neurospora crassa X846; Table 7, 1 mg/mL): 32 mm | Size of Zone of Inhibition (mm) (Neurospora crassa X846; Table 8, 0.33 mg/mL): 36 mm | Size of Zone of Inhibition (mm) (Neurospora crassa X846; Table 8, 1 mg/mL): 36 mm | inhibition of fungal pathogen (Candida albicans X657): inhibit | Size of Zone of Inhibition (mm) (Candida albicans X657; Table 7, 0.01 mg/mL): 21 mm | Size of Zone of Inhibition (mm) (Candida albicans X657; Table 7, 0.1 mg/mL): 22 mm | Size of Zone of Inhibition (mm) (Candida albicans X657; Table 7, 1 mg/mL): 26 mm | Size of Zone of Inhibition (mm) (Candida albicans X657; Table 8, 0.33 mg/mL): 25 mm | Size of Zone of Inhibition (mm) (Candida albicans X657; Table 8, 1 mg/mL): 31 mm | Size of Zone of Inhibition (mm) ([4]; Table 7, 0.01 mg/mL): 20 mm | Size of Zone of Inhibition (mm) ([4]; Table 7, 0.1 mg/mL): 20 mm | Size of Zone of Inhibition (mm) ([4]; Table 7, 1 mg/mL): 27 mm | Size of Zone of Inhibition (mm) ([4]; Table 8, 0.33 mg/mL): 24 mm | Size of Zone of Inhibition (mm) ([4]; Table 8, 1 mg/mL): 24 mm | minimum lethal dose [5]: about 650 µg/kg
